These results are taken from paper PMC3001897, “High-Throughput Chemical Screen Identifies a Novel Potent Modulator of Cellular Circadian Rhythms and Reveals CKIα as a Clock Regulatory Kinase” (PLoS Biology, 2010).

For orientation: IC50 means the midpoint of a concentration-inhibition curve. Read a high IC50 as a need for much substance.

For data set [1], the system named is larval per3-luc zebrafish. Kind of data set: In vivo luminescence rhythms in per3-luc zebrafish. To be noted: up to 9 µM. On the procedure: The per3-luc transgenic line was obtained from Zebrafish International Resource Center. Hemizygote larval fish were entrained in 12 h light/12 h dark cycles from day 3 to 6 postfertilization. They were then placed in an individual well of a 96-well white solid-bottom plate with 180 µl of E3 solution (5 mM NaCl, 0.17 mM KCl, 0.33 mM CaCl2, and 0.33 mM MgSO4, pH 7.0) containing 0.5 mM luciferin, 0.013% Amquel Plus Instant Water Detoxifier (Kordon brand; Novalek, Hayward, California, United States), and various concentrations of longdaysin (final 0.1% DMSO). The plate was covered with optically clear film, and the luminescence was recorded every 36 min by using the Tecan luminometer at 25°C. The period parameter was obtained from the luminescence rhythm by using MultiCycle software.

For the next data set, the system named is Bmal1-dLuc U2OS cells. Kind of data set: U2OS cell-based circadian assay (Bmal1-dLuc luminescence rhythms). Also noted: species or system human. On the procedure: The compound screen was done with the high-throughput circadian assay system as described previously. In brief, Bmal1-dLuc U2OS cells were suspended in the culture medium (DMEM supplemented with 10% fetal bovine serum, 0.29 mg/ml L-glutamine, 100 units/ml penicillin, and 100 µg/ml streptomycin) and plated onto 384-well white solid-bottom plates at 20 µl (2,000 cells) per well. After 2 d, 50 µl of the explant medium (DMEM supplemented with 2% B27, 10 mM HEPES, 0.38 mg/ml sodium bicarbonate, 0.29 mg/ml L-glutamine, 100 units/ml penicillin, 100 µg/ml streptomycin, 0.1 mg/ml gentamicin, and 1 mM luciferin, pH 7.2) was dispensed to each well, followed by the application of 500 nl of compounds (dissolved in DMSO; final 0.7% DMSO). The plate was covered with an optically clear film and set to luminescence monitoring system equipped with a CCD imager (ViewLux, Perkin Elmer). The luminescence was recorded every 2 h for 3–4 days. In follow-up studies, the luminescence was recorded every 100 min by using a microplate reader (Infinite M200, Tecan). The period parameter was obtained from the luminescence rhythm by curve fitting program CellulaRhythm or MultiCycle (Actimetrics), both of which gave similar results.

Another data set addresses CKIδ (Homo sapiens, UniProt P48730). As to the kind of experiment: In vitro kinase assay, CKIδ. It is filed as biochemical. Also noted: purchased Millipore 14-520. To be noted: ATP 5 µM; from Figure 2E. On the procedure: The CKIδ, CKIα, CDK7, and ERK2 kinase assays were performed on 384-well plates (10 µl volume). The reaction mixture was as follows: for CKIδ, 2 ng/µl CKIδ (Millipore, 14-520), 50 µM peptide substrate RKKKAEpSVASLTSQCSYSS corresponding to human PER2 Lys659-Ser674 [47], and CKI buffer (40 mM Tris, 10 mM MgCl2, 0.5 mM DTT, 0.1 mg/ml BSA, pH 7.5); for CKIα, 1 ng/µl CKIα (Invitrogen, PV3850), 50 µM CKI peptide substrate (Anaspec, 60547-1), and CKI buffer; for CDK7, 5 ng/µl CDK7 (Millipore, 14-476), 100 µM Cdk7/9 peptide substrate (Millipore, 12-526), and CKI buffer; for ERK2, 1.5 ng/µl ERK2 (Millipore, 14-550), 0.8 µg/µl MBP (Millipore, 13-104), and ERK buffer (50 mM Tris, 10 mM MgCl2, 0.5 mM DTT, 1 mM EGTA, pH 7.5). Five hundred nl of compound was added to the mixture (final 5% DMSO), and the reaction was started by adding ATP (final 5 µM). After incubation at 30°C for 3h, 10 µl of Kinase-Glo Luminescent Kinase Assay reagent (Promega) was added, and the luminescence was detected to determine remaining ATP amount. […] IC50 value was obtained by using Prism software (GraphPad Software).

Setting [2] is: Bmal1-dLuc U2OS cells, from Figure 1B.

Where “and” joins values, the source holds several entries; their conditions need not be identical. Equal entries are not always repeated.

Chain of CKIδ (P48730 whole entry, species assumed): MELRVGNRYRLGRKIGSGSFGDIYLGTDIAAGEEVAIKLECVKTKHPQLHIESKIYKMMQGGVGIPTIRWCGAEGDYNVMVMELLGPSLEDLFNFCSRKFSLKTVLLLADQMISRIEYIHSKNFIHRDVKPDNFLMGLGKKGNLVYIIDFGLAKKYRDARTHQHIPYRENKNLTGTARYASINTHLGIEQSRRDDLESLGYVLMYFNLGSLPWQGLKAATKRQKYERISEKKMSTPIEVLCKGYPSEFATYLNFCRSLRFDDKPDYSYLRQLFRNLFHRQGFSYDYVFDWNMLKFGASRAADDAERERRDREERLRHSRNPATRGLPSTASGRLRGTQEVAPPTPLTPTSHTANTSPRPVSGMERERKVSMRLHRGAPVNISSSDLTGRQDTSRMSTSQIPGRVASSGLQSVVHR

As to `CC(C)n1cnc2c(NCc3cccc(C(F)(F)F)c3)ncnc21` [Longdaysin, 9-isopropyl-N-(3-(trifluoromethyl)benzyl)-9H-purin-6-amine], the “Effect on body size” value in data set [1] (1 wk treatment) is given as “without affecting body size”. The “Period lengthening in vivo” value in data set [1] (per3-luc reporter fish, constant darkness) is recorded as over 10 h. Besides, the “Period change (lengthening)” value in the data set on Bmal1-dLuc U2OS cells (10 µM, U2OS cells) is > 10 h and 13 h. Further, in the data set on Bmal1-dLuc U2OS cells (setting [2]), the “Concentration for period change, 5 h” value came to 1.5 µM; the “Concentration for period change, 10 h” value came to 5.7 µM; the “Concentration for period change, 15 h” value is 13 µM. In the data set with Bmal1-dLuc U2OS cells (period lengthening), the “Potency relative to compound 1 (times more potent)” value was 3 times. Moreover, the “Reversibility of period effect after washout” value in the data set on Bmal1-dLuc U2OS cells (washout, U2OS cells, mouse fibroblasts, lung (Figure S2)) is “reversible”. For the same molecule, the IC50 against CKIδ was found to be 8.8 µM.
